Assay results published in PubChem BioAssay (NCI).
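Method: 48-hour compound exposure of cells in 96-well plates, five concentrations, linear interpolation of endpoints. At the TGI there is no net growth.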

Key:
Test in all cases: NCI-60 cell line screen, 48 h
[1] = test system: OVCAR-4 ovarian
[2] = test system: OVCAR-3 ovarian
[3] = test system: SR leukemia
[4] = test system: PC-3 prostate
[5] = test system: T-47D breast
[6] = test system: SNB-19 CNS
[7] = test system: UO-31 renal
[8] = test system: HOP-92 NSCLC
[9] = test system: HCC-2998 colon
[10] = test system: BT-549 breast
[11] = test system: MDA-MB-231 breast
[12] = test system: SW-620 colon
[13] = test system: NCI/ADR-RES ovarian

SMILES	TGI [1]	TGI [2]	TGI [3]	TGI [4]	TGI [5]	TGI [6]	TGI [7]	TGI [8]	TGI [9]	TGI [10]	TGI [11]	TGI [12]	TGI [13]
Clc1ccc(OCC2NC3CCC2CC3)cn1 (stereo unspecified)	> 100 µM	> 100 µM	44.6 µM	78.3 µM	> 100 µM	77.1 µM	6.06 µM	> 100 µM	32.5 µM	> 100 µM	47.8 µM	57.1 µM	> 100 µM
O=C(O)C(Cc1cc(I)c(O)c(I)c1)C1CCCCC1 (stereo unspecified)	> 100 µM	38.5 µM	> 100 µM	41.5 µM	> 100 µM	> 100 µM	> 100 µM	> 100 µM	76.9 µM	> 100 µM	72.5 µM	> 100 µM	> 100 µM
CCCCNC(=O)OCCN=c1c2ccccc2ccc2ccccc12	> 100 µM	> 100 µM	> 100 µM	> 100 µM	> 100 µM	> 100 µM	> 100 µM	> 100 µM	> 100 µM	> 100 µM	> 100 µM	> 100 µM	> 100 µM
Fc1ccc(Nc2nc(Cl)c3[nH]cnc3n2)cc1Cl	> 100 µM	> 100 µM	> 100 µM	> 100 µM	> 100 µM	> 100 µM	33.5 µM	> 100 µM	> 100 µM	> 100 µM	> 100 µM	> 100 µM	> 100 µM
CN1CCN(c2cc3[nH]c4cc(O)cc(O)c4c(=O)c3cc2N)CC1	69.5 µM	54.9 µM	21 µM	52.7 µM	> 100 µM	> 100 µM	67.3 µM	44 µM	45.7 µM	95.1 µM	3.32 µM	65.3 µM	> 100 µM
CN(C)c1cccc(-c2cc(=S)c3cc4c(cc3[nH]2)OCO4)c1	> 100 µM	> 100 µM	> 100 µM	> 100 µM	> 100 µM	> 100 µM	> 100 µM	> 100 µM	> 77.7 µM	> 100 µM	> 100 µM	> 100 µM	> 100 µM
Cc1nc2ccc(F)cc2c2c1CCS2	> 100 µM	> 100 µM	> 100 µM	> 100 µM	> 100 µM	> 100 µM	> 100 µM	> 100 µM	> 100 µM	> 100 µM	86.9 µM	> 100 µM	> 100 µM
